Test results from patent EP2476670A1, “Stable solid salts of ambrisentan” (Zentiva, K.S., priority 2011, dated 2012).
Counter-ions that a name gives are not always drawn. Like-named read-outs stand apart in the source and are kept apart here.

Assays:
[1] = Solubility of ambrisentan solid forms in water at 25 °C; type: physicochemical; conditions: approximate values
Description: Solubility of all the salts are considerably higher compared to solubility of ambrisentan in the salt free form. Table. 1 Solubility of ambrisentan solid forms in water at 25 °C

[2] = pKa of the ionisable groups of ambrisentan; type: physicochemical

Solubility [1] | Solubility ([1]; sodium salt) [µg/mL] | SMILES | further results
∼ 0.05 mg/ml | – | COC(c1ccccc1)(c1ccccc1)[C@H](Oc1nc(C)cc(C)n1)C(=O)O [Ambrisentan (Form R), (S)-2-(4,6-dimethylpyrimidin-2-yloxy)-3-methoxy-3,3-diphenylpropanoic acid] | pKa ([2]; read-out: pKa of nitrogen in pyrimidine ring): 2.98 ± 0.3; pKa ([2]; read-out: pKa of the carboxylic group): 0.93 ± 0.1
– | – | COC(c1ccccc1)(c1ccccc1)[C@H](Oc1nc(C)cc(C)n1)C(=O)O [Ambrisentan phosphate salt, ambrisentan phosphate salt] | Solubility ([1]; phosphate salt): ∼ 0.1 mg/ml
– | >10000 | COC(c1ccccc1)(c1ccccc1)[C@H](Oc1nc(C)cc(C)n1)C(=O)O [Ambrisentan sodium salt (amorphous), ambrisentan sodium salt] | –
– | >5000 | COC(c1ccccc1)(c1ccccc1)[C@H](Oc1nc(C)cc(C)n1)C(=O)O [Ambrisentan sodium salt (crystalline), ambrisentan sodium salt] | –
>6000 µg/mL | – | COC(c1ccccc1)(c1ccccc1)[C@H](Oc1nc(C)cc(C)n1)C(=O)O [Ambrisentan tert-butylammonium salt, ambrisentan tert-butylammonium salt] | –
